Measurements from patent publication US12207654B2, “Bactericidal agent for agricultural or horticultural use, plant disease control method, and product for plant disease control use” (Kureha Corporation, priority 2019, dated 2025).
“And” between values parts separate entries of the source, which are not always exact repeats. Equal entries are not always repeated. Where two headings read alike, the source gives them in different places.

Experiments:
[1] = system: Fusarium graminearum; assay: microbe, parasite or virus in culture; type: cell-based
[2] = system: Pyrenophora graminea; assay: In vitro antimicrobial activity test on PDA plate media (colony diameter); type: cell-based; conditions: used alone
[3] = system: Gaeumannomyces graminis; assay: as above; type: cell-based; conditions: used alone
[4] = system: Alternaria alternata apple pathotype; assay: as above; type: cell-based; conditions: used alone
[5] = system: Glomerella cingulata; assay: as above; type: cell-based
[6] = system: Penicillium italicum; assay: as above; type: cell-based
[7] = system: Microdocum nivale; assay: as above; type: cell-based; conditions: used alone
[8] = system: Fusarium fujikuroi; assay: as above; type: cell-based; conditions: used alone
[9] = system: wheat leaf rust (Puccinia recondita); assay: Controlling effect test against wheat leaf rust (foliar spray on potted wheat seedlings); type: in vivo; conditions: sprayed alone, 1.25 g/ha
[10] = system: Pyrenophola teres; assay: In vitro antimicrobial activity test on PDA plate media (colony diameter); conditions: read-out: Actual fungal growth inhibition rate (%)
Source text: Apart from this, Pyrenophola teres pre-cultivated on chemical-free plate media was punched out with a 4-mm diameter cork borer and inoculated on chemical-containing PDA plate media.
In the above formula, R represents the fungal growth inhibition rate (%), dc represents the colony diameter on the chemical-free plate, and dt represents the colony diameter on the chemical-containing plate. […] Inhibition rate when mixed for use(theoretical value)=α+((100−α)×β/100
In the above formula, α and β represent the inhibition rate when each compound is used alone.

[11] = system: Cercospora beticola; assay: In vitro antimicrobial activity test in 96-well microplate (absorbance at 620 nm); type: cell-based; conditions: used alone
[12] = Colletotrichum gloeosporioides, used alone, 0.50 ppm, read-out: Actual fungal growth inhibition rate (%)

COC(=O)C(O)(Cn1cncn1)c1ccc(Oc2ccc(C(F)(F)F)cc2)cc1Cl (stereo not shown) [Azole derivative I-23]
Actual fungal growth inhibition rate (%) [1]: 79% | Actual fungal growth inhibition rate (%) ([2]; 0.08 ppm): 73% | Actual fungal growth inhibition rate (%) ([2]; 0.13 ppm): 81% | Actual fungal growth inhibition rate (%) ([2]; 0.31 ppm): 92% | Actual fungal growth inhibition rate (%) ([2]; 0.50 ppm): 91% | Actual fungal growth inhibition rate (%) ([2]; 1.25 ppm): 95% | Actual fungal growth inhibition rate (%) ([3]; 0.01 ppm): 0% | Actual fungal growth inhibition rate (%) ([3]; 0.03 ppm): 38% | Actual fungal growth inhibition rate (%) ([3]; 0.08 ppm): 92% | Actual fungal growth inhibition rate (%) ([3]; 5.00 ppm): 94% | Actual fungal growth inhibition rate (%) ([4]; 0.03 ppm): 0% | Actual fungal growth inhibition rate (%) ([4]; 0.13 ppm): 0% | Actual fungal growth inhibition rate (%) ([5]; used alone, 0.03 ppm): 9% | Actual fungal growth inhibition rate (%) ([5]; used alone, 0.13 ppm): 31% | Actual fungal growth inhibition rate (%) ([5]; used alone, 0.50 ppm): 61% | Actual fungal growth inhibition rate (%) ([6]; used alone, 0.01 ppm): 6% | Actual fungal growth inhibition rate (%) ([6]; used alone, 0.03 ppm): 12% | Actual fungal growth inhibition rate (%) ([6]; used alone, 0.13 ppm): 35% | Actual fungal growth inhibition rate (%) ([6]; used alone, 0.50 ppm): 52% and 43% | Actual fungal growth inhibition rate (%) ([7]; 0.01 ppm): 0% | Actual fungal growth inhibition rate (%) ([7]; 0.13 ppm): 4% and 10% | Actual fungal growth inhibition rate (%) ([7]; 0.50 ppm): 27% and 24%

COC(=O)C(O)(Cn1cncn1)c1ccc(Oc2ccc(Cl)cc2)cc1C(F)(F)F (stereo not shown) [Azole derivative I-122]
Actual fungal growth inhibition rate (%) [1]: 83% | Actual fungal growth inhibition rate (%) ([2]; 0.13 ppm): 75% | Actual fungal growth inhibition rate (%) ([2]; 0.50 ppm): 82% | Actual fungal growth inhibition rate (%) ([3]; 0.01 ppm): 0% | Actual fungal growth inhibition rate (%) ([3]; 0.03 ppm): 32% | Actual fungal growth inhibition rate (%) ([3]; 0.13 ppm): 70% and 57% | Actual fungal growth inhibition rate (%) ([3]; 0.31 ppm): 96% | Actual fungal growth inhibition rate (%) ([3]; 0.50 ppm): 97% | Actual fungal growth inhibition rate (%) ([3]; 1.25 ppm): 96% | Actual fungal growth inhibition rate (%) ([4]; 0.13 ppm): 0% | Actual fungal growth inhibition rate (%) ([4]; 0.50 ppm): 5% | Actual fungal growth inhibition rate (%) ([5]; used alone, 0.01 ppm): 8% | Actual fungal growth inhibition rate (%) ([5]; used alone, 0.03 ppm): 14% | Actual fungal growth inhibition rate (%) ([5]; used alone, 0.13 ppm): 45% | Actual fungal growth inhibition rate (%) ([5]; used alone, 0.50 ppm): 82% | Actual fungal growth inhibition rate (%) ([7]; 0.01 ppm): 0% | Actual fungal growth inhibition rate (%) ([7]; 0.03 ppm): 0% | Actual fungal growth inhibition rate (%) ([7]; 0.13 ppm): 4%

COC(=O)C(O)(Cn1cncn1)c1ccc(Oc2ccc(Cl)cc2)cc1Br (stereo not shown) [Azole derivative I-228]
Actual fungal growth inhibition rate (%) [1]: 39% | Actual fungal growth inhibition rate (%) ([2]; 0.50 ppm): 84% | Actual fungal growth inhibition rate (%) ([3]; 0.13 ppm): 89% | Actual fungal growth inhibition rate (%) ([3]; 0.31 ppm): 63% | Actual fungal growth inhibition rate (%) ([3]; 1.25 ppm): 67% | Actual fungal growth inhibition rate (%) ([3]; 5.00 ppm): 71% | Actual fungal growth inhibition rate (%) ([8]; 0.50 ppm): 21% | Actual fungal growth inhibition rate (%) ([5]; Glomerella cingulata, single chemical at 0.01 ppm): 0% | Actual fungal growth inhibition rate (%) ([5]; Glomerella cingulata, single chemical at 0.03 ppm): 16% | Actual fungal growth inhibition rate (%) ([5]; used alone, 0.01 ppm): 2% | Actual fungal growth inhibition rate (%) ([5]; used alone, 0.03 ppm): 12% | Actual fungal growth inhibition rate (%) ([5]; used alone, 0.50 ppm): 82% | Actual fungal growth inhibition rate (%) ([6]; Penicillium italicum, single chemical at 0.13 ppm): 56% | Actual fungal growth inhibition rate (%) ([7]; 1.25 ppm): 56% | Actual fungal growth inhibition rate (%) ([7]; 5.00 ppm): 86%

CO/C=C(/C(=O)OC)c1ccccc1Oc1cc(Oc2ccccc2C#N)ncn1 [Azoxystrobin, azoxystrobin, reference compound]
Actual controlling rate [9]: 47%

Cn1cc(C(=O)Nc2ccc(F)cc2-c2ccc(Cl)c(Cl)c2)c(C(F)F)n1 [Bixafen, bixafen]
Actual fungal growth inhibition rate (%) ([1]; used alone, 0.10 ppm): 6% and 0% | Actual fungal growth inhibition rate (%) ([2]; 1.56 ppm): 75% | Actual fungal growth inhibition rate (%) ([4]; 0.03 ppm): 14% | Actual fungal growth inhibition rate (%) ([8]; 0.13 ppm): 13% | Actual fungal growth inhibition rate (%) ([8]; 0.50 ppm): 19% | Actual fungal growth inhibition rate (%) ([7]; 0.10 ppm): 0%

COC(=O)Nc1nc2ccccc2[nH]1 [Carbendazim, carbendazim]
inhibition at 0.625 ppm [10]: 0% | inhibition at 2.5 ppm [10]: 6% | inhibition at 10 ppm [10]: 13% | inhibition at 40 ppm [10]: 14%

COc1ccnc(C(=O)N[C@H]2COC(=O)[C@H](Cc3ccccc3)[C@@H](OC(=O)C(C)C)[C@H](C)OC2=O)c1OCOC(=O)C(C)C [Fenpicoxamid, fenpicoxamid]
Actual growth inhibition rate ([11]; 0.04 ppm): 28% | Actual growth inhibition rate ([11]; 0.2 ppm): 59% | Actual growth inhibition rate ([11]; 1.0 ppm): 60% | Actual growth inhibition rate ([11]; 5.0 ppm): 100%

O=C(NCCc1ncc(C(F)(F)F)cc1Cl)c1ccccc1C(F)(F)F [Fluopyram, fluopyram, reference compound]
inhibition at 0.03 ppm ([8]; Fusarium fujikuroi, 0.03 ppm, read-out: Actual fungal growth inhibition rate (%)): 6% | inhibition at 0.5 ppm ([8]; Fusarium fujikuroi, 0.50 ppm, read-out: Actual fungal growth inhibition rate (%)): 21% | inhibition at 0.13 ppm ([5]; Colletotrichum gloeosporioides, used alone, 0.13 ppm, read-out: Actual fungal growth inhibition rate (%)): 3% | inhibition at 0.5 ppm [5, 12]: 9%

CO/N=C(/C1=NOCCO1)c1ccccc1Oc1ncnc(Oc2ccccc2Cl)c1F [Fluoxastrobin, fluoxastrobin, reference compound]
inhibition at 0.13 ppm ([2]; Pyrenophora graminea, 0.13 ppm, read-out: Actual fungal growth inhibition rate (%)): 51% | inhibition at 0.5 ppm ([2]; Pyrenophora graminea, 0.50 ppm, read-out: Actual fungal growth inhibition rate (%)): 55% | Actual fungal growth inhibition rate (%) ([2]; 0.13 ppm): 46% | Actual fungal growth inhibition rate (%) ([2]; 0.50 ppm): 59% | inhibition at 0.13 ppm ([4]; Alternaria alternata, 0.13 ppm, read-out: Actual fungal growth inhibition rate (%)): 48% | inhibition at 0.5 ppm ([4]; Alternaria alternata, 0.50 ppm, read-out: Actual fungal growth inhibition rate (%)): 43% | inhibition at 0.5 ppm [5, 12]: 48% | inhibition at 0.01 ppm ([7]; 0.01 ppm, read-out: Actual fungal growth inhibition rate (%)): 96%
